Data set [1] concerns Mycobacterium tuberculosis H37Rv pMSp12::GFP. Kind of data set: microbe, parasite or virus in culture. The settings on record: Mycobacterium tuberculosis, 168 h, Mtb H37Rv, protein-rich media, 7 days, read-out: MIC90 7H9/ADC/GLU/Tw 7 Days; for MIC90: H37RV. It counts as cell-based.
A further data set is described as follows: MTT cytotoxicity assay. The following applies: human; for IC20 at 24 h: IC20, HepG2, 24 h, MTT, concentration at which cells retain 80% viability, extrapolated from the dose–response curve.
For another data set, the system named is HepG2 cells. Kind of data set: MTT cytotoxicity assay. The following applies: HepG2, 24 h, MTT; for IC20: concentration at which cells retain 80% viability, extrapolated from the dose–response curve.
For data set [2], the system named is Mycobacterium tuberculosis H37Rv pMSp12::GFP. Kind of data set: microbe, parasite or virus in culture. It counts as cell-based. The settings on record: Mtb H37Rv.
The conditions of data set [3]: cited from earlier work.
The mark [4] stands for this setting: Mycobacterium tuberculosis, H37RV, 168 h, protein-poor media, 7 days, read-out: MIC90 7H9/CAS/GLU/Tx 7 Days.

In brackets after ≈: the same amount, converted by molar mass. Where two headings read alike, the source gives them in different places.

The term viability denotes the share of living cells, or the viability signal relative to a control. Higher therefore signals better survival. By IC20 is commonly meant the concentration needed for an effect of 20%. Consider `O=C(NCCNc1ccnc2cc(Cl)ccc12)Nc1nc2ccc(Br)cc2s1` [Compound 6g, 1-(6-Bromobenzo[d]thiazol-2-yl)-3-(2-((7-chloroquinolin-4-yl)amino)ethyl)urea], for which the MIC in data set [1] came to 14.9 µM (≈ 7.1 µg/mL). In the data set “MTT cytotoxicity assay”, the viability at 24 h came out at 48% and the IC20 at 24 h was 7.47 µM. Further, in the data set on HepG2 cells, the IC20 is 4.26 µM. Besides, in data set [2] (Mycobacterium tuberculosis, 168 h, protein-poor media, 7 days, read-out: MIC90 7H9/CAS/GLU/Tx 7 Days), the MIC was 8.89 µM (≈ 4.24 µg/mL). Moreover, the MIC90 in data set [2] (Mycobacterium tuberculosis, H37RV, both media (CAS and ADC) or medium not given, read-out: MIC90) lay within 8.89 to 14.9 µM (≈ 4.24 to 7.1 µg/mL).
Turning to `O=C(NCCCCNc1ccnc2cc(Cl)ccc12)Nc1nc2ccc(Br)cc2s1` [Compound 6p], the IC20 in the data set with HepG2 cells is 2.13 µM. For the same compound, in the data set with HepG2 cells (viability at the compound's MIC90 in the CAS assay, extrapolated from the curve), the MIC90 cell viability is recorded as 56%. Also, in data set [2] (protein-poor media, 7 days, read-out: MIC90 7H9/CAS/GLU/Tx 7 Days), the MIC90 was determined as 7.812 µM (≈ 3.94 µg/mL).
Broadly, the melting point is the temperature of the solid-liquid transition. As to `Cc1ccc2nc(NC(=O)NC(C)CNc3ccnc4cc(Cl)ccc34)sc2c1` (centres unmarked) [Compound 6x, 1-(1-((7-Chloroquinolin-4-yl)amino)propan-2-yl)-3-(6-methylbenzo[d]thiazol-2-yl)urea], the melting point was 229 to 231 °C. The MIC90 in data set [1] worked out at 10.3 µM (≈ 4.41 µg/mL). In addition, in “MTT cytotoxicity assay”, the viability at 24 h is 96% and the IC20 at 24 h was 16.2 µM. Moreover, the MIC90 in data set [2] (setting [4]) came to 7.22 µM (≈ 3.07 µg/mL).
Turning to `CC(CNc1ccnc2cc(Cl)ccc12)NC(=O)Nc1nc2ccc(Cl)cc2s1` (centres unmarked) [Compound 6y, 1-(1-((7-Chloroquinolin-4-yl)amino)propan-2-yl)-3-(6-chlorobenzo[d]thiazol-2-yl)urea], the melting point was in the range of 301 to 304 °C. The MIC90 in data set [1] was 8.46 µM (≈ 3.77 µg/mL). For the same compound, in the data set “MTT cytotoxicity assay”, the viability at 24 h stood at 78% and the concentration for an effect of 20% (IC20) at 24 h is 2.22 µM. In data set [2] (setting [4]), the MIC90 was determined as 2.33 µM (≈ 1.04 µg/mL).
On to `CC(C)=CCC/C(C)=C/CNCCNC1C2CC3CC(C2)CC1C3` (centres unmarked) [SQ-109], for which, in data set [3], the “clog P” value is reported as 6.82.

The values are drawn from PMC9146500, “New Quinoline–Urea–Benzothiazole Hybrids as Promising Antitubercular Agents: Synthesis, In Vitro Antitubercular Activity, Cytotoxicity Studies, and In Silico ADME Profiling” (Pharmaceuticals, 2022).
